# Numbered stars: 1 amine (or outer) side, 2 acyl side, 3 side chain; on linkers, the order of the positions; unused ones are H or OH. Square brackets hold non-standard residues; d marks the D form. Peptide text beside a SMILES is read from it. * marks the point of attachment. X16 = C[C@H](N)c1nc(SCC(=O)NCCNC(=O)OCC2c3ccccc3-c3ccccc32)cn1[C@@H](C)C(=O)*; X10 = C[C@H](N)c1nnnn1[C@@H](CCCCN[*:1])C(=O)[*:2]; X8 = C[C@@H](C(=O)[*:2])n1nncc1[C@@H](N)CCCCN[*:1]; X3 = NCc1cccn1[C@@H](CCCCN[*:1])C(=O)[*:2]; X2 = O=C([C@@H]1Cc2ccccc2N1[*:1])[*:2]; Fmoc = O=C(OCC1c2ccccc2-c2ccccc21)*; X15 = NCc1cc(S(N)(=O)=O)ccc1C(=O)*; Tic = O=C(O)[C@@H]1Cc2ccccc2CN1; dTic = O=C(O)[C@H]1Cc2ccccc2CN1; Decanoyl = CCCCCCCCCC(=O)*; X1 = O=C(O)Cc1ccccc1C(=O)*; X14 = NCCc1ccccc1C(=O)*
# Test system: not listed separately
# Test: Determination of half life in PBS: cleavage of promoieties from capped model peptides
# Format: physicochemical
# Conditions: PBS (phosphate-buffered saline), pH 4; read-out: t 1/2 (h), cleavage of promoiety linked to N terminus of model peptide X-[…] (converted)
# Description: Determination Of half Life in PBS
# Polypeptides GIVEQAA-NH2 (SEQ ID NO: 57) and […] (SEQ ID NO: 58), two mimics of the N-terminus section of insulin A chain, were used as model peptides to determine the half lives of various promoieties linked to the N-terminus of the peptides through an amide bond. The model peptides were prepared with Fmoc chemistry, cleaved by TFA and purified by preparative RP-HPLC.
# The promoiety capped model peptide was dissolved at 1 mg/mL concentration in PBS and the solution was incubated at 37° C. in a water bath. Samples were collected for analysis at different time points (e.g., 8 h, 16 h, 24 h, 48 h, 72 h, 96 h, 120 h). […] The promoiety cleavage was quenched by lowering pH to 2 by addition of 0.1% TFA solution. RP-HPLC was used to monitor the cleavage reactions and the cleavage rates were quantitatively studied by measuring the peak areas of the promoiety capped and released model peptides. Agilent 6110 Quadrupole LC-MS was employed to verify the change of mass in the course of reaction.
# The RP-HPLC analysis was performed using a Shimadzu LC-2010A HT system and a 150 mm×4.6 mm Zorbax 300SB-C18 column. The flow rate was 1 ml/min. Solvent A contained 0.1% TFA/5% CH3CN in deionized water, and solvent B contained 0.1% TFA in 100% CH3CN. A linear gradient was employed (e.g., 10-70% B in 10 minutes).
# (§1) The rate of cleavage was determined for the respective promoiety capped model peptides. The concentrations of the promoiety capped model peptides and the released model peptides were determined by their respective peak areas. The first order dissociation rate constant of a promoiety capped model peptide was determined by plotting the logarithm of [starting promoiety capped model peptide]/[remaining promoiety capped model peptide] at various time intervals. The half life for cleavage of a promoiety capped model peptide was calculated by using the equation and the slope derived from this plot.
# The cleavage half lives of various promoieties linked to the model peptides were determined using the procedures described above.
row,half-life at 1 mg/mL [h],Compound
1,6.2,CC[C@H](C)[C@H](NC(=O)CNC(=O)c1ccccc1CC(=O)O)C(=O)N[C@H](C(=O)N[C@@H](CCC(=O)O)C(=O)N[C@@H](CCC(N)=O)C(=O)N[C@@H](C)C(=O)N[C@@H](C)C(=O)N[C@@H](Cc1ccc(O)cc1)C(=O)O)C(C)C [drawing 171] (X1-GIVEQAAY-OH; C-terminus assumed)

# Same assay, conditions: PBS, 37° C., 1 mg/mL, RP-HPLC
row,Compound,"t 1/2 (h), cleavage of promoiety linked to N terminus of model peptide X-GIVEQAAY [h]"
1,SEQ ID NO: 60 (GIVEQAAY; N-term may be promoiety modified),72.6

# Same assay, conditions: PBS, 37° C., 1 mg/mL, RP-HPLC; read-out: t 1/2 (h), cleavage of promoiety linked to N terminus of model peptide X-[…] (converted)
row,half-life at 1 mg/mL [h],Compound
1,3.4,CC[C@H](C)[C@H](NC(=O)CNC(=O)[C@@H]1Cc2ccccc2N1C(=O)[C@H](C)N)C(=O)N[C@H](C(=O)N[C@@H](CCC(=O)O)C(=O)N[C@@H](CCC(N)=O)C(=O)N[C@@H](C)C(=O)N[C@@H](C)C(=O)N[C@@H](Cc1ccc(O)cc1)C(=O)O)C(C)C [NH2-Ala-Indo2CA] (H-A[X2]GIVEQAAY-OH; C-terminus assumed)
2,58.9,CC[C@H](C)[C@H](NC(=O)CNC(=O)[C@@H]1Cc2ccccc2CN1C(=O)[C@H](C)N)C(=O)N[C@H](C(=O)N[C@@H](CCC(=O)O)C(=O)N[C@@H](CCC(N)=O)C(=O)N[C@@H](C)C(=O)N[C@@H](C)C(=O)N[C@@H](Cc1ccc(O)cc1)C(=O)O)C(C)C [NH2-Ala-Tic] (H-A[Tic]GIVEQAAY-OH; C-terminus assumed)
3,6,CCCCCCCCCC(=O)NCCCC[C@H](N)C(=O)N1c2ccccc2C[C@H]1C(=O)NCC(=O)N[C@H](C(=O)N[C@H](C(=O)N[C@@H](CCC(=O)O)C(=O)N[C@@H](CCC(N)=O)C(=O)N[C@@H](C)C(=O)N[C@@H](C)C(=O)N[C@@H](Cc1ccc(O)cc1)C(=O)O)C(C)C)[C@@H](C)CC [NH2-K(C10)-Indo2CA] (H-K(Decanoyl)[X2]GIVEQAAY-OH; C-terminus assumed)
4,46.9,CCCCCCCCCC(=O)NCCCC[C@H](N)C(=O)N1Cc2ccccc2C[C@H]1C(=O)NCC(=O)N[C@H](C(=O)N[C@H](C(=O)N[C@@H](CCC(=O)O)C(=O)N[C@@H](CCC(N)=O)C(=O)N[C@@H](C)C(=O)N[C@@H](C)C(=O)N[C@@H](Cc1ccc(O)cc1)C(=O)O)C(C)C)[C@@H](C)CC [NH2-K(C10)-Tic] (H-K(Decanoyl)[Tic]GIVEQAAY-OH; C-terminus assumed)
5,9.7,CC[C@H](C)[C@H](NC(=O)CNC(=O)[C@@H]1Cc2ccccc2N1C(=O)[C@@H](N)Cc1ccccc1)C(=O)N[C@H](C(=O)N[C@@H](CCC(=O)O)C(=O)N[C@@H](CCC(N)=O)C(=O)N[C@@H](C)C(=O)N[C@@H](C)C(=O)N[C@@H](Cc1ccc(O)cc1)C(=O)O)C(C)C [NH2-Phe-Indo2CA] (H-F[X2]GIVEQAAY-OH; C-terminus assumed)
6,13,CC[C@H](C)[C@H](NC(=O)CNC(=O)[C@@H]1Cc2ccccc2N1C(=O)[C@@H](N)C(C)C)C(=O)N[C@H](C(=O)N[C@@H](CCC(=O)O)C(=O)N[C@@H](CCC(N)=O)C(=O)N[C@@H](C)C(=O)N[C@@H](C)C(=O)N[C@@H](Cc1ccc(O)cc1)C(=O)O)C(C)C [NH2-Val-Indo2CA] (H-V[X2]GIVEQAAY-OH; C-terminus assumed)
7,50.6,CCCCCCCCCC(=O)NCCCC[C@@H](N)C(=O)N1Cc2ccccc2C[C@@H]1C(=O)NCC(=O)N[C@H](C(=O)N[C@H](C(=O)N[C@@H](CCC(=O)O)C(=O)N[C@@H](CCC(N)=O)C(=O)N[C@@H](C)C(=O)N[C@@H](C)C(=O)N[C@@H](Cc1ccc(O)cc1)C(=O)O)C(C)C)[C@@H](C)CC [NH2-dK(C10)-dTic] (H-[dK](Decanoyl)[dTic]GIVEQAAY-OH; C-terminus assumed)
8,183,CC[C@H](C)[C@H](NC(=O)CNC(=O)c1ccccc1CC(=O)O)C(=O)N[C@H](C(=O)N[C@@H](CCC(=O)O)C(=O)N[C@@H](CCC(N)=O)C(=O)N[C@@H](C)C(=O)N[C@@H](C)C(=O)N[C@@H](Cc1ccc(O)cc1)C(=O)O)C(C)C [drawing 173] (X1-GIVEQAAY-OH; C-terminus assumed)

# Test system: not listed separately
# Test: Determination of half life in serum: cleavage of promoieties from capped D-amino acid model peptides
# Format: in vitro ADME
# Conditions: 100% serum, 37° C.; read-out: t 1/2 (h), cleavage of promoiety linked to N terminus of model peptide X-G-dI-dV-dE-dQ-dA-dA (converted)
# Description: Determination of Half Life in Serum
# Promoiety capped model peptides X-G-dI-dV-dE-dQ-dA-dA were used in the assay. D amino acids were used to prevent other enzymatic cleavage of the model peptides. The peptides were dissolved in 100% serum and incubated at 37° C. Samples were collected for analysis at different time points (e.g., 1 h, 2 h, 4 h, 8 h, 12 h, 24 h, 48 h, 72 h, 96 h, and 120 h).
# as §1, with “The” for “The rate of cleavage was determined for the respective promoiety capped model peptides. The”, “released parent” for “released”
row,half-life [h],Compound
1,103,CC[C@@H](C)[C@@H](NC(=O)CNC(=O)[C@H](CCCCNC(=O)OCC1c2ccccc2-c2ccccc21)n1cccc1CN)C(=O)N[C@@H](C(=O)N[C@H](CCC(=O)O)C(=O)N[C@H](CCC(N)=O)C(=O)N[C@H](C)C(=O)N[C@H](C)C(=O)O)C(C)C (Fmoc-[X3]G[dI][dV][dE][dQ][dA][dA]-OH)
2,96.4,CC[C@@H](C)[C@@H](NC(=O)CNC(=O)[C@H](C)n1nncc1[C@@H](N)CCCCNC(=O)OCC1c2ccccc2-c2ccccc21)C(=O)N[C@@H](C(=O)N[C@H](CCC(=O)O)C(=O)N[C@H](CCC(N)=O)C(=O)N[C@H](C)C(=O)N[C@H](C)C(=O)O)C(C)C (Fmoc-[X8]G[dI][dV][dE][dQ][dA][dA]-OH)
3,91.5,CC[C@@H](C)[C@@H](NC(=O)CNC(=O)[C@H](CCCCNC(=O)OCC1c2ccccc2-c2ccccc21)n1nnnc1[C@H](C)N)C(=O)N[C@@H](C(=O)N[C@H](CCC(=O)O)C(=O)N[C@H](CCC(N)=O)C(=O)N[C@H](C)C(=O)N[C@H](C)C(=O)O)C(C)C (Fmoc-[X10]G[dI][dV][dE][dQ][dA][dA]-OH)
4,106,CC[C@@H](C)[C@@H](NC(=O)CNC(=O)c1ccccc1CCN)C(=O)N[C@@H](C(=O)N[C@H](CCC(=O)O)C(=O)N[C@H](CCC(N)=O)C(=O)N[C@H](C)C(=O)N[C@H](C)C(=O)O)C(C)C (X14-G[dI][dV][dE][dQ][dA][dA]-OH)
5,39.9,CC[C@@H](C)[C@@H](NC(=O)CNC(=O)c1ccc(S(N)(=O)=O)cc1CN)C(=O)N[C@@H](C(=O)N[C@H](CCC(=O)O)C(=O)N[C@H](CCC(N)=O)C(=O)N[C@H](C)C(=O)N[C@H](C)C(=O)O)C(C)C (X15-G[dI][dV][dE][dQ][dA][dA]-OH)
6,72.3,CC[C@@H](C)[C@@H](NC(=O)CNC(=O)[C@H](C)n1cc(SCC(=O)NCCNC(=O)OCC2c3ccccc3-c3ccccc32)nc1[C@H](C)N)C(=O)N[C@@H](C(=O)N[C@H](CCC(=O)O)C(=O)N[C@H](CCC(N)=O)C(=O)N[C@H](C)C(=O)N[C@H](C)C(=O)O)C(C)C (X16-G[dI][dV][dE][dQ][dA][dA]-OH)

# Target: insulin receptor (Homo sapiens, UniProt P06213)
# Test: not given
# Conditions: cited from earlier work
# Sequence of insulin receptor (P06213 28-758 limits assumed, species assumed): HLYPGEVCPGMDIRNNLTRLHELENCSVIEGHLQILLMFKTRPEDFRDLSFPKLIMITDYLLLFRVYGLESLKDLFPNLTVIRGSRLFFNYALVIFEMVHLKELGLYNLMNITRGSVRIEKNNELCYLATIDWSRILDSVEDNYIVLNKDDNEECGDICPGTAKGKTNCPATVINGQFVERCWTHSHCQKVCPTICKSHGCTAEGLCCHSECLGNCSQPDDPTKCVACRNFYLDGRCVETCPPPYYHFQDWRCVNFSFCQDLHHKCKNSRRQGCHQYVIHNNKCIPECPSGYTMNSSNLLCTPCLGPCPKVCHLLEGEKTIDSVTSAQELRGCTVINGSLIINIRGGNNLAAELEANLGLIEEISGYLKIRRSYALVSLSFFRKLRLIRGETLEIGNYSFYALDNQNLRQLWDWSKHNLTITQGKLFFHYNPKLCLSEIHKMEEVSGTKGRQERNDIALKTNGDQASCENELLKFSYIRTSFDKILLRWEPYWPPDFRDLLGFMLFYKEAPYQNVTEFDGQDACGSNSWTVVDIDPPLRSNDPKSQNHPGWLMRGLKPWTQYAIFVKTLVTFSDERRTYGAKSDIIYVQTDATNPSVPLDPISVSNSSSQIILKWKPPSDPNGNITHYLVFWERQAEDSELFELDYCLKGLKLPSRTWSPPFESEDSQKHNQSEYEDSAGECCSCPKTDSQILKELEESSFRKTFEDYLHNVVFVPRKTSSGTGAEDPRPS
# Sequence of insulin receptor (P06213 763-1382 partner limits assumed, species assumed): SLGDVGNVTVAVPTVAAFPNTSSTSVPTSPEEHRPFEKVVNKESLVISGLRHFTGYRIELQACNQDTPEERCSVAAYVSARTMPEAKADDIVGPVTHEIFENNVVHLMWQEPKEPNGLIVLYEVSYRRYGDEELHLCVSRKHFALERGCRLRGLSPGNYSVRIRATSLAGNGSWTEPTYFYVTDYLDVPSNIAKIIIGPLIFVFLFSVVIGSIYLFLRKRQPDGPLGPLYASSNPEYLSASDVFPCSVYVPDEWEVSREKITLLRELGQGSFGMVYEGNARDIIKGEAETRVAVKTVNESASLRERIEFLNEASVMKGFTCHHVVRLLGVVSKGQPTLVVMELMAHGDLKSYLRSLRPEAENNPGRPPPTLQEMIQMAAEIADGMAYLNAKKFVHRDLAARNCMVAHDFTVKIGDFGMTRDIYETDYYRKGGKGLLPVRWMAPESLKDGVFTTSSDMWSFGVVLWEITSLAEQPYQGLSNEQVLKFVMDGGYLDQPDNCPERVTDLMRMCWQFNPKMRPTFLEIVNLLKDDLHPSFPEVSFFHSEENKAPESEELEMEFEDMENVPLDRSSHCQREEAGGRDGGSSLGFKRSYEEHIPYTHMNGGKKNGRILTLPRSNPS
row,Compound,binding affinity retained relative to native insulin
1,"[LysB29-tetradecanoyl, des B30] insulin [insulin detemir]",15-20%

# — US20200291086A1, “BIOREVERSABLE PROMOIETIES FOR NITROGEN-CONTAINING AND HYDROXYL-CONTAINING DRUGS” (priority 2013, published 2020)
